Data as given in ChEMBL document CHEMBL5241132, “Design, synthesis and in vitro biological evaluation of 2-aminopyridine derivatives as novel PI3Kδ inhibitors for hematological cancer” (Bioorg Med Chem Lett, 2023).

Assays:
[1] = molecular target: T1, Phosphatidylinositol 4,5-bisphosphate 3-kinase catalytic subunit delta isoform (Homo sapiens, UniProt O00329); assay: Inhibition of PI3Kdelta (unknown origin) by ADP Glo luminescent assay
T1 sequence (O00329 whole entry): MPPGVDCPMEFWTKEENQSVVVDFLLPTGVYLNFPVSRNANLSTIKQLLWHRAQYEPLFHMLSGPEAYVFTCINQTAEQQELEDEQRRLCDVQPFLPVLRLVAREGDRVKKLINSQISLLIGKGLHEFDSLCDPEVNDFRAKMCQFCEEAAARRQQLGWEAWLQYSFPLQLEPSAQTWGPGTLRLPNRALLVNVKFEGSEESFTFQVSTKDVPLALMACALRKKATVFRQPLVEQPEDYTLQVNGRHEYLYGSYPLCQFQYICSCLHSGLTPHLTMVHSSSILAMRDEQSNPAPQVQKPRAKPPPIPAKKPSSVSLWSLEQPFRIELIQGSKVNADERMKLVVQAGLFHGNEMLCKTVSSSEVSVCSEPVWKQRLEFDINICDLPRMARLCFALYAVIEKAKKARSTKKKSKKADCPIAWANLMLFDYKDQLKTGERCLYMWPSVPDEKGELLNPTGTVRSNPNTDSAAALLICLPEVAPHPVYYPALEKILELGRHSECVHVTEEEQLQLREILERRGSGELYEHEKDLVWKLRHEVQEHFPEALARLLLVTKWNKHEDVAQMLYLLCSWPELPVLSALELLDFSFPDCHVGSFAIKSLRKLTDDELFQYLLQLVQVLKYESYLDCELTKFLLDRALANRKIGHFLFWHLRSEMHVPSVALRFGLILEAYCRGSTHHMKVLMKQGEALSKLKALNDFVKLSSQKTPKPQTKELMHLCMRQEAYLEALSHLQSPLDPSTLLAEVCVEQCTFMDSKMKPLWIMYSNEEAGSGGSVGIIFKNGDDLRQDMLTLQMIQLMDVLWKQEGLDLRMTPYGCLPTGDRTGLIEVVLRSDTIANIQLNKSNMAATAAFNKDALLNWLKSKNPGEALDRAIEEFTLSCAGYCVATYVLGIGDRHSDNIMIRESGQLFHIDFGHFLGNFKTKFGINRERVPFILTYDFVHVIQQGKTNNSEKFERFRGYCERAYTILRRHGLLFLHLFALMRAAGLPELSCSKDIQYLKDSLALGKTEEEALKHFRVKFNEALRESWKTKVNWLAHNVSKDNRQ

[2] = molecular target: Serine/threonine-protein kinase AKT (Homo sapiens) (UniProt P31751+Q9Y243+P31749); assay: Inhibition of AKT phosphorylation in human MV4-11 cells incubated for 4 hrs by Western blot analysis; format: cell-based; details: dose 1-10 µM
MV4-11 [3] = assay: Induction of apoptosis in human MV4-11 cells assessed as late apoptotic cells at 3 uM incubated for 48 hrs by Annexin V/PI staining based flow cytometric analysis (reference value: 2.82%); format: functional
MV4-11 [4] = assay: Induction of apoptosis in human MV4-11 cells assessed as early apoptotic cells at 5 uM incubated for 48 hrs by Annexin V/PI staining based flow cytometric analysis (reference value: 1.57%); format: functional
Homo sapiens [5] = species on record: Homo sapiens; assay: Selectivity index, ratio of IC50 for inhibition of PI3Kalpha (unknown origin) to IC50 for inhibition of PI3Kdelta (unknown origin) by ADP Glo luminescent assay
MV4-11 [6] = assay: Induction of apoptosis in human MV4-11 cells assessed as necrotic cells at 1 uM incubated for 48 hrs by Annexin V/PI staining based flow cytometric analysis (reference value: 0.060%); format: functional
[7] = Antiproliferative activity against human MOLM16 cells assessed as inhibition of cell growth; format: functional, cell-based, MOLM-16
MV4-11 [8] = assay: Induction of apoptosis in human MV4-11 cells assessed as early apoptotic cells at 10 uM incubated for 48 hrs by Annexin V/PI staining based flow cytometric analysis (reference value: 1.57%); format: functional
[9] = molecular target: Phosphatidylinositol 4,5-bisphosphate 3-kinase catalytic subunit alpha isoform (Homo sapiens, UniProt P42336); assay: Inhibition of PI3Kalpha (unknown origin)
MV4-11 [10] = assay: Antiproliferative activity against human MV4-11 cells assessed as inhibition of cell growth; format: functional, cell-based
Homo sapiens [11] = species on record: Homo sapiens; assay: Selectivity index, ratio of IC50 for inhibition of PI3Kbeta (unknown origin) to IC50 for inhibition of PI3Kdelta (unknown origin) by ADP Glo luminescent assay
MV4-11 [12] = assay: Induction of apoptosis in human MV4-11 cells assessed as viable cells at 5 uM incubated for 48 hrs by Annexin V/PI staining based flow cytometric analysis (reference value: […]); format: functional; details: read-out: Activity
MV4-11 [13] = assay: Cell cycle arrest in human MV4-11 cells assessed as accumulation of cells at G2/M phase incubated for 24 hrs by flow cytometric analysis; format: functional, cell-based; details: dose 1-10 µM
MV4-11 [14] = assay: Induction of apoptosis in human MV4-11 cells assessed as viable cells at 1 uM incubated for 48 hrs by Annexin V/PI staining based flow cytometric analysis (reference value: […]); format: functional; details: read-out: Activity
MV4-11 [15] = assay: Induction of apoptosis in human MV4-11 cells assessed as late apoptotic cells at 10 uM incubated for 48 hrs by Annexin V/PI staining based flow cytometric analysis (reference value: 2.82%); format: functional
MV4-11 [16] = assay: Induction of apoptosis in human MV4-11 cells assessed as early apoptotic cells at 1 uM incubated for 48 hrs by Annexin V/PI staining based flow cytometric analysis (reference value: 1.57%); format: functional
MV4-11 [17] = assay: Induction of apoptosis in human MV4-11 cells assessed as viable cells at 10 uM incubated for 48 hrs by Annexin V/PI staining based flow cytometric analysis (reference value: […]); format: functional; details: read-out: Activity
Homo sapiens [18] = species on record: Homo sapiens; assay: Selectivity index, ratio of IC50 for inhibition of PI3Kgamma (unknown origin) to IC50 for inhibition of PI3Kdelta (unknown origin) by ADP Glo luminescent assay
[19] = molecular target: Phosphatidylinositol 4,5-bisphosphate 3-kinase catalytic subunit beta isoform (Homo sapiens, UniProt P42338); assay: Inhibition of PI3Kbeta (unknown origin)
MV4-11 [20] = assay: Induction of apoptosis in human MV4-11 cells assessed as necrotic cells at 10 uM incubated for 48 hrs by Annexin V/PI staining based flow cytometric analysis (reference value: 0.060%); format: functional
MV4-11 [21] = assay: Induction of apoptosis in human MV4-11 cells assessed as late apoptotic cells at 1 uM incubated for 48 hrs by Annexin V/PI staining based flow cytometric analysis (reference value: 2.82%); format: functional
KG-1 = assay: Antiproliferative activity against human KG-1 cells assessed as inhibition of cell growth; format: functional, cell-based
[22] = molecular target: Phosphatidylinositol 4,5-bisphosphate 3-kinase catalytic subunit gamma isoform (Homo sapiens, UniProt P48736); assay: Inhibition of PI3Kgamma (unknown origin)
HL-60 = assay: Antiproliferative activity against human HL-60 cells assessed as inhibition of cell growth; format: functional, cell-based
MV4-11 [23] = assay: Induction of apoptosis in human MV4-11 cells assessed as viable cells at 3 uM incubated for 48 hrs by Annexin V/PI staining based flow cytometric analysis (reference value: […]); format: functional; details: read-out: Activity
EOL1 = assay: Antiproliferative activity against human EOL1 cells assessed as inhibition of cell growth; format: functional, cell-based
MV4-11 [24] = assay: Induction of apoptosis in human MV4-11 cells assessed as total apoptotic cells at 1 to 10 uM incubated for 48 hrs by Annexin V/PI staining based flow cytometric analysis (reference value: 4.39%); format: functional; details: dose 1-10 µM
MV4-11 [25] = assay: Induction of apoptosis in human MV4-11 cells assessed as necrotic cells at 5 uM incubated for 48 hrs by Annexin V/PI staining based flow cytometric analysis (reference value: 0.060%); format: functional
MV4-11 [26] = assay: Induction of apoptosis in human MV4-11 cells assessed as early apoptotic cells at 3 uM incubated for 48 hrs by Annexin V/PI staining based flow cytometric analysis (reference value: 1.57%); format: functional
MV4-11 [27] = assay: Induction of apoptosis in human MV4-11 cells assessed as necrotic cells at 3 uM incubated for 48 hrs by Annexin V/PI staining based flow cytometric analysis (reference value: 0.060%); format: functional
MV4-11 [28] = assay: Induction of apoptosis in human MV4-11 cells assessed as late apoptotic cells at 5 uM incubated for 48 hrs by Annexin V/PI staining based flow cytometric analysis (reference value: 2.82%); format: functional

Phosphatidylinositol 4,5-bisphosphate 3-kinase catalytic subunit gamma isoform, sequence (P48736 whole entry, canonical isoform): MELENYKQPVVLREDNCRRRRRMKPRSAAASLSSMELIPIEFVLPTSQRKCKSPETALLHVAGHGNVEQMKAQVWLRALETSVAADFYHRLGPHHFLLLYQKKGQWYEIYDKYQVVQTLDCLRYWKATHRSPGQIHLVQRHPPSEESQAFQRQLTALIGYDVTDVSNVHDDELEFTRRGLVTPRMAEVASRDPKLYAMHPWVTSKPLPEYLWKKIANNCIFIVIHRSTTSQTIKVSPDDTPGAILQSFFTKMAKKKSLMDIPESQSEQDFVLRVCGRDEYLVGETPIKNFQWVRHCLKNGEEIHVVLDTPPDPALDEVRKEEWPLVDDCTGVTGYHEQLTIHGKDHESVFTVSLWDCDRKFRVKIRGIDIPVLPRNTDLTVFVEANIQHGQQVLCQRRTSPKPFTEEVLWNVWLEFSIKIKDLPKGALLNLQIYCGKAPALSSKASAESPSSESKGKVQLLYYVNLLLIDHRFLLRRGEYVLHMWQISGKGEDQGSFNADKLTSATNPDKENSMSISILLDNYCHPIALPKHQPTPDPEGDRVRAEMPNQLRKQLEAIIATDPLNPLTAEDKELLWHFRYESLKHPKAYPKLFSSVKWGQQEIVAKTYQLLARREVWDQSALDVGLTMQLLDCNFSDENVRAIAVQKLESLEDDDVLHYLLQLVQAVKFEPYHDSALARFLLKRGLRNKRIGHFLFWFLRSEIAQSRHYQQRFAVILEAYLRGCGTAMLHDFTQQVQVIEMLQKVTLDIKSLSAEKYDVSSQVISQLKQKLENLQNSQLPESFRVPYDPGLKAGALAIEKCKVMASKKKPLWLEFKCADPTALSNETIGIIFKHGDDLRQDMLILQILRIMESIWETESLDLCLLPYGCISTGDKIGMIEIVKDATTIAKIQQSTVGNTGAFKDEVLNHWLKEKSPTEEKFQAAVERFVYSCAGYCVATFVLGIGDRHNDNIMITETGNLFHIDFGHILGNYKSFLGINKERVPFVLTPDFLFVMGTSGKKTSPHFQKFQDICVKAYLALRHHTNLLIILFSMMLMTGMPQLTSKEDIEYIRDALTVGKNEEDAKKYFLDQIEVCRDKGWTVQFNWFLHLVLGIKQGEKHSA
Phosphatidylinositol 4,5-bisphosphate 3-kinase catalytic subunit beta isoform, sequence (P42338 whole entry, canonical isoform): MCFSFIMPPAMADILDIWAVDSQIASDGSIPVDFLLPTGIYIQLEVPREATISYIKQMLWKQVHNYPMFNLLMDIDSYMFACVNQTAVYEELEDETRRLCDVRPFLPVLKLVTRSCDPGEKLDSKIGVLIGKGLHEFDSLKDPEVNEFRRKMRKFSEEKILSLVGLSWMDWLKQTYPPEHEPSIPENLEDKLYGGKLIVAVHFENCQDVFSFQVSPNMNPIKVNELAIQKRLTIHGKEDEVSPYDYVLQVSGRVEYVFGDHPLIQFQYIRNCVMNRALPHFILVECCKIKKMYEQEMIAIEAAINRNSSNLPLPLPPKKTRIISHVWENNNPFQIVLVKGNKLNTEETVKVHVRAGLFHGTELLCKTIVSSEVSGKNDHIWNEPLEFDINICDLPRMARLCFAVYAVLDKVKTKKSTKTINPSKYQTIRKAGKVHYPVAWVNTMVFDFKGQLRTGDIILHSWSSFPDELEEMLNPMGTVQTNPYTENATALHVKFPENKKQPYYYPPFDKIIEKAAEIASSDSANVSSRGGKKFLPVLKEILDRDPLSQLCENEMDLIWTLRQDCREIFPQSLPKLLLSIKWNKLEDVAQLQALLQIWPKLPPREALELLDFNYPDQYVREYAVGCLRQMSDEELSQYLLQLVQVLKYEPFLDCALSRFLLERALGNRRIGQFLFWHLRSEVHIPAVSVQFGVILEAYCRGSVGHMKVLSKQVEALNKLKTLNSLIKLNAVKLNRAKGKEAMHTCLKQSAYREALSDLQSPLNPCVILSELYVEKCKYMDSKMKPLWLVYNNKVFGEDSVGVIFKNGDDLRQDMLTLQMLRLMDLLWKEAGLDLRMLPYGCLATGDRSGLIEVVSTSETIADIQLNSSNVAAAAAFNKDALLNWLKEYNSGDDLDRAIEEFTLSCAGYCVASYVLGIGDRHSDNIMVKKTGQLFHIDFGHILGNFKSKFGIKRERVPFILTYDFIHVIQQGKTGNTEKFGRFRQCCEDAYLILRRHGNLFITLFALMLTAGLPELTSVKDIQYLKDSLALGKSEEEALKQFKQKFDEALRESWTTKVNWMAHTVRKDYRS
Phosphatidylinositol 4,5-bisphosphate 3-kinase catalytic subunit alpha isoform, sequence (P42336 whole entry, canonical isoform): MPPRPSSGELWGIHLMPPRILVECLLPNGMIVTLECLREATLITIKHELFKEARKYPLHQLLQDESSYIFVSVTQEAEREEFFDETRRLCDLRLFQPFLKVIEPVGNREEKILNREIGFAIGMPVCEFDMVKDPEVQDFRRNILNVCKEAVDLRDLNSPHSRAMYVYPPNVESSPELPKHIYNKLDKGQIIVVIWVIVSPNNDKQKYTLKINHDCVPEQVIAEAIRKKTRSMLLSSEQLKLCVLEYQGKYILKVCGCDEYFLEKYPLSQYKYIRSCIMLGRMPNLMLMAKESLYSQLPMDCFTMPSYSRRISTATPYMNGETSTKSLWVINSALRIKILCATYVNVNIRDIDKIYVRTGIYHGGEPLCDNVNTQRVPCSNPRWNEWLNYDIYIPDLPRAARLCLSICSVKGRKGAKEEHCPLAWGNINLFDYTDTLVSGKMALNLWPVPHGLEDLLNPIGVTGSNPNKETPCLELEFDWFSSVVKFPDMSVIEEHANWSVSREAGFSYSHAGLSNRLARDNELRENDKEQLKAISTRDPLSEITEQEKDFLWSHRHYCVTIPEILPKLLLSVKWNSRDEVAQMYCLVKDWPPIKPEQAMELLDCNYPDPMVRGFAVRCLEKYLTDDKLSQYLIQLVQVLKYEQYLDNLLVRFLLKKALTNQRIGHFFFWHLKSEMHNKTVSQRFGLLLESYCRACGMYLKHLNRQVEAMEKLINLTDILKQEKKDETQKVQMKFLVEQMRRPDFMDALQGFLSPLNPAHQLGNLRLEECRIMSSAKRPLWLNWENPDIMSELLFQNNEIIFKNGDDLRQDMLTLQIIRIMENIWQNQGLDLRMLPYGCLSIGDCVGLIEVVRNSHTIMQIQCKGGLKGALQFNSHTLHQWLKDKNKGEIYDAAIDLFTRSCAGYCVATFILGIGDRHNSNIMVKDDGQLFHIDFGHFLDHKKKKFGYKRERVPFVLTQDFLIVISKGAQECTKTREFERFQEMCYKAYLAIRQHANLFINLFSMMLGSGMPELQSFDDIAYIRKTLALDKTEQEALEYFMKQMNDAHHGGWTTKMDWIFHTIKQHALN
Serine/threonine-protein kinase AKT (Homo sapiens), sequence (P31749 whole entry, looked up): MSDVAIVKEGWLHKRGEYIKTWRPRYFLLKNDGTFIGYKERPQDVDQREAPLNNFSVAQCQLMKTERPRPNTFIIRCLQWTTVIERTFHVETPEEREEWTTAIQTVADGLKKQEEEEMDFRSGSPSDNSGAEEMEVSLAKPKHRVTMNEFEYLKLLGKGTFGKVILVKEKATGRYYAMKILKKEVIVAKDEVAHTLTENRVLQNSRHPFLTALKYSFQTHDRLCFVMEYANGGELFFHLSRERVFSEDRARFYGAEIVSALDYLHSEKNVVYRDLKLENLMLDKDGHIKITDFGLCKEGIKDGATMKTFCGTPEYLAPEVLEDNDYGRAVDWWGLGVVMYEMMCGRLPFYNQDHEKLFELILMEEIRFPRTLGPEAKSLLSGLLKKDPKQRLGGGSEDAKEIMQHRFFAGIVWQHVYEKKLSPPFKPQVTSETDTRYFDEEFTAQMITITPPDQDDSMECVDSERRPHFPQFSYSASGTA
Serine/threonine-protein kinase AKT (Homo sapiens), sequence (P31751 whole entry, looked up): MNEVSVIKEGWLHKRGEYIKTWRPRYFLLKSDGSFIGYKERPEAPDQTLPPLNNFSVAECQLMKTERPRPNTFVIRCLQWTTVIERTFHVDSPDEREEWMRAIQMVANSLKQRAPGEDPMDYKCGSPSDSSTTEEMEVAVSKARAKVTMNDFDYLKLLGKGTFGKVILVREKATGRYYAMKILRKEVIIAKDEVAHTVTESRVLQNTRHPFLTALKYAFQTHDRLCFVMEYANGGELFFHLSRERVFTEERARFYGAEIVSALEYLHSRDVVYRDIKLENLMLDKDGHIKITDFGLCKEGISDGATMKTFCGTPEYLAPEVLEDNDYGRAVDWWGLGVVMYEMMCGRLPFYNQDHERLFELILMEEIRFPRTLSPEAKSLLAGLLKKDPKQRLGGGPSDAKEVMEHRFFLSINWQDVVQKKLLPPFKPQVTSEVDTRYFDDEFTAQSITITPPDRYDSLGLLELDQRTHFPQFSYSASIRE
Serine/threonine-protein kinase AKT (Homo sapiens), sequence (Q9Y243 whole entry, looked up): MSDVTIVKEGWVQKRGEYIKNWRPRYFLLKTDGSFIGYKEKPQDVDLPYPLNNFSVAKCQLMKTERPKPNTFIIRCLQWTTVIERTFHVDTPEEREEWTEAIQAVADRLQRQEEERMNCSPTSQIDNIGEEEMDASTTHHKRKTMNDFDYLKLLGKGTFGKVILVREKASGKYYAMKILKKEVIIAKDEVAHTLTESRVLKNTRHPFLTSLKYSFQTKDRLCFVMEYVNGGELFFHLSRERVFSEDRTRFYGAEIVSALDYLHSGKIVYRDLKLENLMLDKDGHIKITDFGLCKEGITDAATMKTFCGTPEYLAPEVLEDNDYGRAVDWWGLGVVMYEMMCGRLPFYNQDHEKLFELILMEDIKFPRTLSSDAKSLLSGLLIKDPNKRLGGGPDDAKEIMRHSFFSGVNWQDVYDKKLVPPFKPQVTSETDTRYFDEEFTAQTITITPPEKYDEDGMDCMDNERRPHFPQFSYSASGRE

COc1ncc(-c2ccc(N)nc2)cc1N
IC50 [1]: > 50000 nM

CCC(=O)Nc1ccc(-c2cnc(Cl)c(NS(=O)(=O)c3ccccc3)c2)cn1
IC50 [1]: 49 nM

COCCNC(=O)Nc1ccc(-c2cnc(Cl)c(NS(=O)(=O)c3ccccc3)c2)cn1
inhibition [2]: Dose-Dependent Effect
Activity (MV4-11 [3]): 4.18%
Activity (MV4-11 [4]): 1.92%
Ratio IC50 (Homo sapiens [5]): 8
Activity (MV4-11 [6]): 0.1%
IC50 [7]: 2600 nM
Activity (MV4-11 [8]): 3.21%
IC50 [9]: 288 nM
IC50 (MV4-11 [10]): 3700 nM
Ratio IC50 (Homo sapiens [11]): 8
viability at 5 µM (MV4-11 [12]): 85.5%
Activity (MV4-11 [13]): Dose-Dependent Effect
viability at 1 µM (MV4-11 [14]): 96%
IC50 [1]: 30 nM
Activity (MV4-11 [15]): 28.1%
Activity (MV4-11 [16]): 1.2%
viability at 10 µM (MV4-11 [17]): 57.4%
Ratio IC50 (Homo sapiens [18]): 8
IC50 [19]: 295 nM
Activity (MV4-11 [20]): 11.3%
Activity (MV4-11 [21]): 2.65%
IC50 (KG-1): 18900 nM
IC50 [22]: 243 nM
IC50 (HL-60): 8700 nM
viability at 3 µM (MV4-11 [23]): 94%
IC50 (EOL1): 15900 nM
Activity (MV4-11 [24]): 3.85%
Activity (MV4-11 [25]): 1.69%
Activity (MV4-11 [26]): 1.47%
Activity (MV4-11 [27]): 0.335%
Activity (MV4-11 [28]): 10.9%

Oc1cccc(-c2nc(N3CCOCC3)c3oc4ncccc4c3n2)c1 [PI-103]
IC50 [7]: 58 nM
IC50 (MV4-11 [10]): 54 nM
IC50 (KG-1): 88 nM
IC50 (HL-60): 89 nM
IC50 (EOL1): 1600 nM

Nc1ccc(-c2cnc(Cl)c(NS(=O)(=O)c3ccc(F)cc3F)c2)cn1
IC50 [1]: 67 nM

Cc1ccc(S(=O)(=O)Nc2cc(-c3ccc(N)nc3)cnc2Cl)cc1
IC50 [1]: 41 nM

Nc1ccc(-c2cnc(Cl)c(NS(=O)(=O)c3ccccc3)c2)cn1
IC50 [1]: 52 nM

Nc1ccc(-c2cnc(Cl)c(C(F)(F)F)c2)cn1
IC50 [1]: 46600 nM

Nc1ccc(-c2cnc(N)c(N)c2)cn1
IC50 [1]: > 50000 nM

Nc1ccc(-c2ccc(Cl)nc2)cn1
IC50 [1]: 47500 nM

Nc1cncc(-c2ccc(N)nc2)c1
IC50 [1]: > 50000 nM

CN(c1cc(-c2ccc(N)nc2)cnc1Cl)S(=O)(=O)c1ccccc1
IC50 [1]: 11300 nM

Nc1ccc(-c2cnc(Cl)c(N)c2)cn1
IC50 [1]: 32500 nM

Cc1ncc(-c2ccc(N)nc2)cc1N
IC50 [1]: > 50000 nM

CC[C@H](Nc1ncnc2[nH]cnc12)c1nc2cccc(F)c2c(=O)n1-c1ccccc1 [IDELALISIB]
IC50 [7]: 13300 nM
IC50 (MV4-11 [10]): 4300 nM
IC50 (KG-1): 15200 nM
IC50 (HL-60): 480 nM
IC50 (EOL1): > 50000 nM

Nc1ccc(-c2cnc(F)c(N)c2)cn1
IC50 [1]: > 50000 nM

CCCC(=O)Nc1ccc(-c2cnc(Cl)c(NS(=O)(=O)c3ccccc3)c2)cn1
IC50 [1]: 46 nM

CC(=O)Nc1ccc(-c2cnc(Cl)c(NS(=O)(=O)c3ccccc3)c2)cn1
IC50 [1]: 48 nM

CCOc1ncc(-c2ccc(N)nc2)cc1N
IC50 [1]: > 50000 nM

Nc1ccc(-c2cnc(Cl)c(F)c2)cn1
IC50 [1]: > 50000 nM

Nc1ccc(-c2cnc(Cl)c(NS(=O)(=O)c3ccc(F)cc3)c2)cn1
IC50 [1]: 98 nM

CC(C)(C)c1ccc(S(=O)(=O)Nc2cc(-c3ccc(N)nc3)cnc2Cl)cc1
IC50 [1]: 31 nM

CCNC(=O)Nc1ccc(-c2cnc(Cl)c(NS(=O)(=O)c3ccccc3)c2)cn1
IC50 [9]: 412 nM
IC50 [1]: 104 nM
IC50 [19]: 235 nM
IC50 [22]: 180 nM

N#Cc1ncc(-c2ccc(N)nc2)cc1N
IC50 [1]: 33500 nM

N#Cc1cc(-c2ccc(N)nc2)cnc1Cl
IC50 [1]: > 50000 nM
